# Measured values published in ChEMBL document CHEMBL3046235, “In vitro biological activities of new heterocyclic chalcone derivatives” (Med Chem Res, 2013).
# The source made the active and inactive calls. The calls are words filed in the database; no cut-off is given here.
# How the values were obtained:
# Aspergillus niger [1] = assay: Antimicrobial activity against Aspergillus niger assessed as diameter of growth inhibition zone at 40 ug/ml by disk diffusion method; format: functional; conditions: read-out: DIZ
# Candida albicans [2] = assay: Antimicrobial activity against Candida albicans assessed as diameter of growth inhibition zone at 40 ug/ml by disk diffusion method; format: functional; conditions: read-out: DIZ
# Staphylococcus aureus [3] = assay: Antimicrobial activity against Staphylococcus aureus isolated from infected patient assessed as growth inhibition by disk diffusion method; format: functional
# Buffalopox virus [4] = assay: Antiviral activity against Buffalopox virus virus infected African green monkey Vero cells assessed as inhibition of viral replication at MNTC dose incubated for 24 hr measured after 4 days; format: functional
# Buffalopox virus [5] = assay: Antiviral activity against Buffalopox virus virus infected African green monkey Vero cells assessed as reduction of virus titers at MNTC dose incubated for 24 hr measured after 4 days by TCID50 assay; format: functional, organism-based
# [6] = tested on: Radical scavenging activity; assay: Antioxidant activity assessed as DPPH radical scavenging activity at 15 ug/ml after 30 min by spectrophotometric analysis; format: functional
# Vero = assay: Cytotoxicity against Chlorocebus aethiops (African green monkey) Vero cells assessed as change in morphological changes after 4 days by inverted microscopic analysis; format: cell-based; conditions: chlorocebus sabaeus, 96 h
# Bacillus subtilis [7] = assay: Antimicrobial activity against Bacillus subtilis isolated from infected patient assessed as diameter of growth inhibition zone at 40 ug/ml by disk diffusion method; format: functional; conditions: read-out: DIZ
# Camelpox virus [8] = assay: Antiviral activity against Camelpox virus infected African green monkey Vero cells assessed as inhibition of viral replication at MNTC dose incubated for 24 hr measured after 3 days; format: functional
# Aspergillus niger [9] = assay: Antimicrobial activity against Aspergillus niger assessed as growth inhibition by disk diffusion method; format: functional
# Salmonella typhi [10] = assay: Antimicrobial activity against Salmonella enterica subsp. enterica serovar Typhi isolated from infected patient assessed as growth inhibition by disk diffusion method; format: functional
# Camelpox virus [11] = assay: Antiviral activity against Camelpox virus infected African green monkey Vero cells assessed as reduction of virus titers at MNTC dose incubated for 24 hr measured after 3 days by TCID50 assay; format: functional, organism-based
# Escherichia coli [12] = assay: Antimicrobial activity against Escherichia coli isolated from infected patient assessed as growth inhibition by disk diffusion method; format: functional
# Bacillus subtilis [13] = assay: Antimicrobial activity against Bacillus subtilis isolated from infected patient assessed as growth inhibition by disk diffusion method; format: functional
# Staphylococcus aureus [14] = assay: Antimicrobial activity against Staphylococcus aureus isolated from infected patient assessed as diameter of growth inhibition zone at 40 ug/ml by disk diffusion method; format: functional; conditions: read-out: DIZ
# Salmonella typhi [15] = assay: Antimicrobial activity against Salmonella enterica subsp. enterica serovar Typhi isolated from infected patient assessed as diameter of growth inhibition zone at 40 ug/ml by disk diffusion method; format: functional; conditions: read-out: DIZ
# Escherichia coli [16] = assay: Antimicrobial activity against Escherichia coli isolated from infected patient assessed as diameter of growth inhibition zone at 40 ug/ml by disk diffusion method; format: functional; conditions: read-out: DIZ
# Goatpox virus [17] = assay: Antiviral activity against Goatpox virus infected African green monkey Vero cells assessed as inhibition of viral replication at MNTC dose incubated for 24 hr measured after 6 days; format: functional
# Candida albicans [18] = assay: Antimicrobial activity against Candida albicans assessed as growth inhibition by disk diffusion method; format: functional
# HepG2 [19] = assay: Cytotoxicity against Homo sapiens (human) HepG2 cells assessed as inhibition of cell viability by trypan blue exclusion method; format: functional; conditions: read-out: LC50 (the source's name)
# Goatpox virus [20] = assay: Antiviral activity against Goatpox virus infected African green monkey Vero cells assessed as reduction of virus titers at MNTC dose incubated for 24 hr measured after 6 days by TCID50 assay; format: functional, organism-based
# HepG2 [21] = assay: Growth inhibition of Homo sapiens (human) HepG2 cells at 25 to 100 ug/ml after 48 hr by MTT assay; format: functional, cell-based
SMILES,zone of inhibition at 40 µg/mL (Aspergillus niger [1]),zone of inhibition at 40 µg/mL (Candida albicans [2]),MIC (Staphylococcus aureus [3]),inhibition (INH) (Buffalopox virus [4]),inhibition (Buffalopox virus [5]),Activity [6],MNTD (Vero),zone of inhibition at 40 µg/mL (Bacillus subtilis [7]),inhibition (INH) (Camelpox virus [8]),MIC (Aspergillus niger [9]),MIC (Salmonella typhi [10]),inhibition (Camelpox virus [11]),MIC (Escherichia coli [12]),MIC (Bacillus subtilis [13]),zone of inhibition at 40 µg/mL (Staphylococcus aureus [14]),zone of inhibition at 40 µg/mL (Salmonella typhi [15]),zone of inhibition at 40 µg/mL (Escherichia coli [16]),inhibition (INH) (Goatpox virus [17]),MIC (Candida albicans [18]),CC50 (HepG2 [19]),also measured
O=C(/C=C/c1ccc[nH]1)c1ccsc1,23 mm,23 mm,40 µg/mL,0%,inactive,31%,4.68 µg,23 mm,0%,30 µg/mL,40 µg/mL,inactive,40 µg/mL,30 µg/mL,16 mm,23 mm,24 mm,0%,40 µg/mL,21 µg/mL,inhibition (Goatpox virus [20]): inactive
Cc1cc(C(=O)/C=C/c2ccc[nH]2)c(C)o1,21 mm,17 mm,30 µg/mL,0%,inactive,31%,25 µg,21 mm,0%,40 µg/mL,40 µg/mL,inactive,40 µg/mL,30 µg/mL,21 mm,19 mm,18 mm,0%,30 µg/mL,59 µg/mL,inhibition (Goatpox virus [20]): inactive
O=C(O)c1cn(C2CC2)c2cc(N3CCNCC3)c(F)cc2c1=O [CIPROFLOXACIN],–,–,–,–,–,–,–,23 mm,–,–,–,–,–,–,24 mm,23 mm,–,–,–,–,–
COc1ccc(/C=C/C(=O)c2cc(C)oc2C)cc1,18 mm,18 mm,40 µg/mL,0%,inactive,64.9%,1.3 µg,23 mm,0%,30 µg/mL,20 µg/mL,inactive,30 µg/mL,40 µg/mL,21 mm,24 mm,21 mm,0%,30 µg/mL,63 µg/mL,inhibition (Goatpox virus [20]): inactive
O=C(/C=C/c1c[nH]c2ccccc12)c1ccsc1,24 mm,28 mm,30 µg/mL,0%,inactive,31%,1.3 µg,16 mm,0%,30 µg/mL,30 µg/mL,inactive,30 µg/mL,40 µg/mL,19 mm,19 mm,20 mm,0%,30 µg/mL,36 µg/mL,inhibition (Goatpox virus [20]): inactive
CCc1ccc(/C=C/C(=O)c2ccsc2)o1,23 mm,25 mm,20 µg/mL,0%,inactive,31%,58.3 µg,25 mm,0%,40 µg/mL,20 µg/mL,inactive,30 µg/mL,20 µg/mL,23 mm,26 mm,25 mm,0%,20 µg/mL,8 µg/mL,growth inhibition (GI) (HepG2 [21]): Active; inhibition (Goatpox virus [20]): inactive
